The target in assay [1] is GSK3b (GST-full length GSK3b) (Homo sapiens (Human), UniProt P49841). In words: GSK3b TR-FRET kinase assay. The assay is classed as biochemical. The procedure, abridged: (§1)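 In this time-resolved FRET format, kinase reactions contained 200 nM biotinylated, S645-phosphorylated glycogen synthase 631-650 peptide and either isoform-specific ATP (2 μM GSK3b, 4 μM GSK3α) or 1 mM ATP. They were quenched with EDTA after 100 min at ambient temperature. Inhibition curves gave IC50 values.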

The target of assay [2] is GSK3α (GST-full length GSK3α) (Homo sapiens (Human), UniProt P49840). In words: GSK3α TR-FRET kinase assay. The assay is classed as biochemical. The procedure, abridged:
as §1
For orientation: TR-FRET usually uses a lanthanide donor and a delayed reading to cut background.

The mark [3] stands for this setting: 1 nM GSK3b, 2 μM ATP, 30 minute preincubation, read-out: GSK3-B TR-FRET BIOCHEMICAL (TR-FRET), IC50.
[4] abbreviates: read-out: GSK3-B (TR-FRET 1 mM ATP), GMean, IC50, 1 mM ATP, geometric mean.
Setting [5] is: 1 nM GSK3α, 4 μM ATP, 30 minute preincubation, read-out: GSK3-A TR-FRET BIOCHEMICAL (TR-FRET), IC50.
The mark [6] stands for this setting: read-out: GSK3-A (TR-FRET 1 mM ATP), GMean, IC50, 1 mM ATP, geometric mean.
Setting [7] is: 1 nM GSK3b, 2 μM ATP, 30 minute preincubation, geometric mean, read-out: GSK3-B TR-FRET BIOCHEMICAL (TR-FRET), GMean, IC50.
Where [8] appears, read: 1 nM GSK3α, 4 μM ATP, 30 minute preincubation, geometric mean, read-out: GSK3-A TR-FRET BIOCHEMICAL (TR-FRET), GMean, IC50.
Setting [9] is: 1 nM GSK3b, 2 μM ATP, 30 minute preincubation, Table 16, read-out: GSK3-B TR-FRET BIOCHEMICAL (TR-FRET), IC50.
Setting [10] is: 1 nM GSK3α, 4 μM ATP, 30 minute preincubation, Table 16, read-out: GSK3-A TR-FRET BIOCHEMICAL (TR-FRET), IC50.
Setting [11] is: 1 nM GSK3b, 2 μM ATP, 30 minute preincubation, Table 16, read-out: GSK3-B TR-FRET BIOCHEMICAL (TR-FRET).
Where [12] appears, read: 1 nM GSK3α, 4 μM ATP, 30 minute preincubation, Table 16, read-out: GSK3-A TR-FRET BIOCHEMICAL (TR-FRET).

Read-outs that look alike come from different tables or passages of the source.

Sequence of GSK3b (GST-full length GSK3b) (P49841 whole entry, canonical isoform): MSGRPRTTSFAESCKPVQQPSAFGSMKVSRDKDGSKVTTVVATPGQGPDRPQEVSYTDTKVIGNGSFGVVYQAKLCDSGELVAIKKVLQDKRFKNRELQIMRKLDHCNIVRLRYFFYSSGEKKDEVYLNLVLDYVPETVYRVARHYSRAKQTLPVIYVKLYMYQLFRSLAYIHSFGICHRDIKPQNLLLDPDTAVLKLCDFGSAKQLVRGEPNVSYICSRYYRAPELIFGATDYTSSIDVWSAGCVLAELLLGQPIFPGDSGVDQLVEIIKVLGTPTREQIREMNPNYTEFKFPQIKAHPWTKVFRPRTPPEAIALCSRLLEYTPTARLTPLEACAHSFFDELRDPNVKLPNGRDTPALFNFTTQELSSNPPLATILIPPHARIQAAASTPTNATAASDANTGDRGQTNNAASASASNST
Sequence of GSK3α (GST-full length GSK3α) (P49840 whole entry): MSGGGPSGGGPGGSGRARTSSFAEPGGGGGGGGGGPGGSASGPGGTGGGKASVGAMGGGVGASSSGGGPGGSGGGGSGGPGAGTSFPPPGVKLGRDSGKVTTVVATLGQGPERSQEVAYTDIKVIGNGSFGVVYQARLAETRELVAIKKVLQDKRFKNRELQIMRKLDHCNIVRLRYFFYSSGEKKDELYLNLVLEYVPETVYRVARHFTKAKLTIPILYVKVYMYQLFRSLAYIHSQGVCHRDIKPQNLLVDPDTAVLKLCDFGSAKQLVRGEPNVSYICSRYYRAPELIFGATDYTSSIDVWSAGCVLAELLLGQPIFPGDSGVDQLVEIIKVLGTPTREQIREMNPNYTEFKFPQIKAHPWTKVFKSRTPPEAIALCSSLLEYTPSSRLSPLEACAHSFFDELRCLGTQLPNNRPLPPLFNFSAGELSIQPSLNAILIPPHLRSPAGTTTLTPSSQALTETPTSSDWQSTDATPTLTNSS

Take `CC[C@@]1(c2cccc(C(F)(F)F)c2)C2=C(Nc3n[nH]cc31)[C@H](C)CN(C)C2=O` [Compound 883980]: the IC50 in assay [1] (setting [3]) was ≤ 0.1 µM; in assay [1] (setting [4]), 1 to 5 µM; in assay [2] (setting [5]), ≤ 0.1 µM; in assay [2] (setting [6]), 0.1 to 1 µM.

As for `CCC1(c2cccc(Br)c2)C2=C(CC(C)(C)C(F)C2=O)Nc2n[nH]cc21` (mixture of isomers) [Compound 826764], the IC50 is 0.1 to 1 µM in assay [1] (setting [7]) and ≤ 0.1 µM in assay [2] (setting [8]).

On to `CCC1(c2cccc(-c3ccncc3C)c2)C2=C(CC(C)(C)CC2=O)Nc2n[nH]c(C)c21` (stereo not shown) [Compound 883991], for which the IC50 in assay [1] (setting [9]) and in assay [2] (setting [10]) was ≤ 0.1 µM in each case.

In the case of `CC[C@@]1(c2cccc(-c3cn(C)nc3C)c2)C2=C(CC(C)(C)C2=O)Nc2n[nH]cc21` [Compound 951710], the IC50 in assay [1] (setting [9]) and in assay [2] (setting [10]) was > 5 µM in each case.

With `CCC1(c2cccc(C3CN(C(C)=O)C3)c2)C2=C(CC(C)(C)CC2=O)Nc2n[nH]cc21` (stereo not shown) [Compound 948779], the IC50 was > 5 µM in assay [1] (setting [11]) and 1 to 5 µM in assay [2] (setting [12]).

Regarding `CC[C@]1(c2cccc(-c3ccnn3-c3ccc(F)cc3)c2)C2=C(CC(C)(C)NC2=O)Nc2n[nH]cc21` [Compound 950822], the IC50 in assay [1] (setting [9]) and in assay [2] (setting [10]) was 0.1 to 1 µM each time.

As for `CCC1(c2cccc(OC(C)C)c2)C2=C(CC(C)(C)CC2=O)Nc2[nH]nc(C(F)(F)F)c21` (stereo not shown) [Compound 947867], the IC50 in assay [1] (setting [11]), in assay [1] (setting [4]), in assay [2] (setting [12]) and in assay [2] (setting [6]) was ≤ 0.1 µM in each case.

On to `CCC1(c2cccc(Cl)c2)C2=C(CC(C)(C)CC2=O)Nc2n[nH]c(Br)c21` (stereo not shown) [Compound 789564], for which the IC50 in assay [1] (setting [7]) and in assay [2] (setting [8]) was ≤ 0.1 µM throughout.

In the case of `CCC1(c2cccc(-c3ccnc4nc(C)ccc34)c2)C2=C(CC(C)(C)NC2=O)Nc2n[nH]cc21` (stereo not shown) [Compound 948151], the results for the IC50 in assay [1] (setting [7]) and in assay [2] (setting [8]) were > 5 µM and 0.1 to 1 µM, respectively.

With `CC1(C)CC(=O)C2=C(Nc3n[nH]cc3[C@]23CC[C@@H](C(F)(F)F)CC3)C1F` (stereo partly shown) [Compound 917135], the IC50 is 0.1 to 1 µM in assay [1] (setting [11]) and ≤ 0.1 µM in assay [2] (setting [12]).

With `CCC1(c2cccc(-c3c(F)cncc3OC)c2)C2=C(CC(C)(C)NC2=O)Nc2n[nH]cc21` (stereo not shown) [Compound 948145], the IC50 is > 5 µM in assay [1] (setting [7]) and 0.1 to 1 µM in assay [2] (setting [8]).

In the case of `CC1(C)CC(=O)C2=C(C1)Nc1n[nH]cc1[C@@]21CCN(S(C)(=O)=O)C1` [Compound 942462], the IC50 in assay [1] (setting [11]) and in assay [2] (setting [12]) was ≤ 0.1 µM throughout.

`CC[C@]1(c2ccccc2)C2=C(Nc3n[nH]cc31)[C@H](C)C[C@H](C)C2=O` [Compound 909218]: the IC50 in assay [1] (setting [9]) and in assay [2] (setting [10]) was > 5 µM in each case.

For the compound `CC1(C)CC(=O)C2=C(C1)Nc1n[nH]cc1[C@]21CO[C@@H](C2CC2)C1` (stereo in doubt) [Compound 913185], the figures for the IC50 in assay [1] (setting [11]) and in assay [2] (setting [12]) were 1 to 5 µM and 0.1 to 1 µM, respectively.

On to `CC[C@]1(c2cccc(C(C)C)c2)C2=C(CC(C)(C)NC2=O)Nc2n[nH]c(C(F)(F)F)c21` [Compound 950493], for which the IC50 in assay [1] (setting [9]) and in assay [2] (setting [10]) was 0.1 to 1 µM each time.

With `CC1(C)CC(=O)C2=C(C1)Nc1n[nH]cc1C21CC2(COC2)C1` [Compound 912168], the IC50 in assay [1] (setting [3]) and in assay [2] (setting [5]) was > 5 µM throughout.

For the compound `CC[C@@]1(c2cccc(N(C)c3cncnc3)c2)C2=C(CC(C)(C)CC2=O)Nc2n[nH]cc21` [Compound 915400], the IC50 in assay [1] (setting [9]) and in assay [2] (setting [10]) was ≤ 0.1 µM each time.

Regarding `CCC1(c2cccc(N3CCCC3C)c2)C2=C(CC(C)(C)CC2=O)Nc2n[nH]cc21` (mixture of isomers) [Compound 885188], the IC50 in assay [1] (setting [9]) and in assay [2] (setting [10]) was 0.1 to 1 µM in each case.

As for `CCC1(c2cccc(C(F)(F)C(F)(F)F)c2)C2=C(CC(C)(C)CC2=O)Nc2n[nH]cc21` (stereo not shown) [Compound 949268], the IC50 in assay [1] (setting [11]) is > 5 µM; in assay [2] (setting [12]), 1 to 5 µM.

As to `CCC1(c2cccc(-c3ccncc3)c2)C2=C(CC(C)CC2=O)Nc2n[nH]cc21` (stereo not shown) [Compound 874315], the IC50 is > 5 µM in assay [1] (setting [7]) and 1 to 5 µM in assay [2] (setting [8]).

For `CC[C@]1(c2cccc(-c3cc(-c4ccccc4)nn3C(C)C)c2)C2=C(CC(C)(C)NC2=O)Nc2n[nH]cc21` [Compound 952411], the IC50 in assay [1] (setting [9]) was > 5 µM; in assay [2] (setting [10]), 1 to 5 µM.

Take `CC[C@@]1(c2ccccc2)C2=C(Nc3n[nH]cc31)[C@@H](C)C[C@H](C)C2=O` [Compound 865202]: the IC50 in assay [1] (setting [7]) and in assay [2] (setting [8]) was > 5 µM throughout.

With `CCC1(c2cccc(N(C)C3CC3)c2)C2=C(CC(C)(C)CC2=O)Nc2n[nH]cc21` (stereo not shown) [Compound 945466], the figures for the IC50 in assay [1] (setting [11]) and in assay [2] (setting [12]) were 1 to 5 µM and 0.1 to 1 µM, respectively.

For the compound `Cc1noc(C2CCC3(CC2)C2=C(CC(C)(C)CC2=O)Nc2n[nH]cc23)n1` (stereo not shown) [Compound 943895], the IC50 in assay [1] (setting [11]) and in assay [2] (setting [12]) was 0.1 to 1 µM each time.

With `CCC1(c2cccc(-c3ccnc(C)c3)c2)C2=C(CC(C)CC2=O)Nc2n[nH]cc21` (stereo not shown) [Compound 932637], the IC50 in assay [1] (setting [9]) and in assay [2] (setting [10]) was > 5 µM throughout.

Take `CC1(C)CC(=O)C2=C(C1)Nc1n[nH]cc1C21CCN(S(=O)(=O)c2ccc3ccccc3n2)CC1` [Compound 947476]: the IC50 in assay [1] (setting [3]) and in assay [2] (setting [5]) was ≤ 0.1 µM in each case.

As to `CC[C@]1(c2cccc(-c3ccnnc3)c2)C2=C(CC(C)(C)CC2=O)Nc2n[nH]cc21` [Compound 929454], the IC50 is ≤ 0.1 µM in assay [1] (setting [9]), 1 to 5 µM in assay [1] (setting [4]), ≤ 0.1 µM in assay [2] (setting [10]) and 0.1 to 1 µM in assay [2] (setting [6]).

`CC[C@@]1(c2cccc(-c3ccncc3C)c2)C2=C(CC(C)(C)NC2=O)Nc2n[nH]c(C)c21` [Compound 947414]: the IC50 in assay [1] (setting [7]) was ≤ 0.1 µM; in assay [1] (setting [4]), 1 to 5 µM; in assay [2] (setting [8]), ≤ 0.1 µM; in assay [2] (setting [6]), 0.1 to 1 µM.

On to `C[C@]1(c2ccccc2)C2=C(CC3(CCCC3)CC2=O)Nc2n[nH]cc21` [Compound 792339], for which the IC50 is > 5 µM in assay [1] (setting [7]) and > 1.7 µM in assay [2] (setting [8]).

Turning to `O=C1C2=C(Nc3n[nH]cc3C23CCOCC3)[C@H]2CC[C@@H]1C2` [Compound 912080], the IC50 in assay [1] (setting [11]) and in assay [2] (setting [12]) was 0.1 to 1 µM each time.

Consider `CCC1(c2cccc(-c3cnn(C)c3)c2)C2=C(CC(C)(C)C2=O)Nc2n[nH]cc21` (stereo not shown) [Compound 950826], for which the IC50 in assay [1] (setting [9]) and in assay [2] (setting [10]) was > 5 µM throughout.

`CC[C@@]1(c2cccc(-c3ccnc(C)c3)c2)C2=C(CC(C)(C)C2=O)Nc2n[nH]cc21` [Compound 950282]: the IC50 in assay [1] (setting [9]) was 0.1 to 1 µM; in assay [2] (setting [10]), ≤ 0.1 µM.

For the compound `CC[C@H]1CCN1c1cccc([C@@]2(CC)C3=C(CC(C)(C)CC3=O)Nc3n[nH]cc32)c1` [Compound 911972], the IC50 in assay [1] (setting [9]) was > 5 µM; in assay [2] (setting [10]) it was 1 to 5 µM.

Consider `CCC1(c2cccc(C(F)(F)F)c2)C2=C(Nc3n[nH]cc31)C(F)C(C)(C)CC2=O` (single isomer, unassigned) [Compound 837803, 4-ethyl-8-fluoro-7,7-dimethyl-4-(3-(trifluoromethyl)phenyl)-2,4,6,7,8,9-hexahydro-5H-pyrazolo[3,4-b]quinolin-5-one], for which the IC50 in assay [1] (setting [7]) was > 5 µM; in assay [1] (GSK3-B (TR-FRET 1 mM ATP), GMean, IC50, 1 mM ATP, geometric mean), > 5 µM; in assay [2] (setting [8]) it was 1 to 5 µM; in assay [2] (GSK3-A (TR-FRET 1 mM ATP), GMean, IC50, 1 mM ATP, geometric mean) it was > 5 µM.

Turning to `C[C@H]1CCC[C@@]2(C1)C1=C(CC(C)(C)CC1=O)Nc1n[nH]cc12` [Compound 893319], the IC50 in assay [1] (setting [11]) and in assay [2] (setting [12]) was 0.1 to 1 µM in each case.

For `CC[C@@]1(c2cccc(-c3ccnc4cc(F)ccc34)c2)C2=C(CC(C)(C)NC2=O)Nc2n[nH]cc21` [Compound 948519], the IC50 in assay [1] (setting [7]) and in assay [2] (setting [8]) was > 5 µM throughout.

For the compound `CCC1(c2cccc(-c3c(F)cncc3OC)c2)C2=C(Nc3n[nH]cc31)C(F)C(C)(C)CC2=O` (stereo not shown) [Compound 948548, 4-ethyl-8-fluoro-4-(3-(3-fluoro-5-methoxypyridin-4-yl)phenyl)-7,7-dimethyl-2,4,6,7,8,9-hexahydro-SH-pyrazolo[3,4-b]quinolin-5-one], the IC50 in assay [1] (setting [11]) is 0.1 to 1 µM; in assay [2] (setting [12]) it was ≤ 0.1 µM.

Consider `CC[C@]1(c2cccc(-c3ccnc4c3CCC4)c2)C2=C(CC(C)(C)NC2=O)Nc2n[nH]c(C(F)(F)F)c21` [Compound 948769], for which the IC50 in assay [1] (setting [7]) and in assay [2] (setting [8]) was 0.1 to 1 µM each time.

Turning to `CC[C@]1(c2cccc(-c3cc(C)nn3C)c2)C2=C(CC(C)(C)CC2=O)Nc2n[nH]c(C(F)(F)F)c21` [Compound 947383], the IC50 was > 5 µM in assay [1] (setting [11]) and 1 to 5 µM in assay [2] (setting [12]).

These data come from patent US20250313563A1, “GLYCOGEN SYNTHASE KINASE 3 INHIBITORS AND USES THEREOF” (The Broad Institute, Inc., priority 2022, published 2025).
